Measurements reported in patent US20220023381A1, “VDAC INHIBITORS FOR TREATING AUTOIMMUNE DISEASES” (NATIONAL INSTITUTE FOR BIOTECHNOLOGY IN THE NEGEV LTD., priority 2018, published 2022).

Key:
[1] = system: EndoG−/− MEFs; assay: Quantification of cytosolic mtDNA (cmtDNA) in EndoG−/− MEFs; format: cell-based, mouse; conditions: VBIT-4 (10 μM), real-time PCR
Method: MEFs were resuspended in 170 μl digitonin buffer containing 150 mM NaCl, 50 mM HEPES pH 7.4, and 25 μg/ml digitonin (EMD Millipore Corp). The homogenates were incubated on a rotator for 10 min at room temperature, followed by centrifugation at 16,000 g for 25 min at 4° C. A 1:20 dilution of the supernatant (cmtDNA) was used for real-time RT-PCR. The pellet was resuspended in 340 μl lysis buffer containing 5 mM EDTA and proteinase K (Qiagen) and incubated at 55° C. overnight. The digested pellet was diluted with water (1:20 to 1:100) and heated at 95° C. for 20 min to inactivate proteinase K, and the sample was used for real-time PCR. The primers used were as follow (5′-3′): D-loop1 forward (SEQ ID NO:64), and reverse (SEQ ID NO:65); D-loop2 forward (SEQ ID NO:66), and reverse (SEQ ID NO:67); D-loop3 forward (SEQ ID NO:68), and reverse (SEQ ID NO:69). The cmtDNA in the supernatant was normalized to the total mitochondrial DNA in the pellet for each sample.

[2] = target: T1, VDAC1 (Rattus norvegicus, UniProt Q9Z2L0); assay: mtDNA efflux from liposomes reconstituted with VDAC1; format: biochemical; conditions: VDAC1-containing mtDNA-loaded liposomes
T1 construct: from tissue; host or cells: rat liver mitochondria (inferred)
T1 sequence (Q9Z2L0 whole entry): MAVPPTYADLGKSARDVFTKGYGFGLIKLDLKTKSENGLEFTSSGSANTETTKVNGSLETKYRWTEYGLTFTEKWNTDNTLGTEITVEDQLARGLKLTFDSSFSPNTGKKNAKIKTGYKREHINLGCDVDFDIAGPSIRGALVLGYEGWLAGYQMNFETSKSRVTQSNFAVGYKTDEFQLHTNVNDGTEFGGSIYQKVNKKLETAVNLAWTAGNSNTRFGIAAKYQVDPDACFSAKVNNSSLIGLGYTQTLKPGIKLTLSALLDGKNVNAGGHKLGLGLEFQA

## O=C(CC(CO)N1CCN(c2ccc(OC(F)(F)F)cc2)CC1)Nc1ccc(Cl)cc1 (centres unmarked) [VBIT-4, N-(4-chlorophenyl)-4-hydroxy-3-(4-(4-(trifluoromethoxy)phenyl)-piperazin-1-yl)butanamide]
[1]
  cmtDNA: decreased
[2]
  mtDNA release from liposomes: decreased
